Patent US8859284B2, “Delivery of nanoparticles to neurons” (The United States of America, as represented by the …, priority 2009, dated 2014)
Square brackets hold non-standard residues; d marks the D form. Ends that are not written are not given here. * marks the point of attachment. Farnesyl = CC(C)=CCC/C(C)=C/CC/C(C)=C/C*; Palmitoyl = CCCCCCCCCCCCCCCC(=O)*; Dab = NCC[C@H](N)C(=O)O; Dap = NC[C@H](N)C(=O)O; Kh = not defined here; Aib = CC(C)(N)C(=O)O

Experiments:
HEK 293T/17 cells = test: Cellular delivery of QDs, intracellular fate by fluorescence microscopy; details: for disruption of endosomes: with QD-CPP, 2-3 h, highest concentrations (500 mM sucrose or 500 μM chloroquine)
Experimental: Human embryonic kidney (HEK 293T/17) and African green monkey kidney (COS-1) cell lines (ATCC, Manassas, Va.) were cultured in complete growth medium (Dulbecco's Modified Eagle's Medium (DMEM; purchased from ATCC)) supplemented with 1% (v/v) antibiotic/antimycotic and 10% (v/v) heat inactivated fetal bovine serum (ATCC). Cells were cultured in T-25 flasks and incubated at 37° C. under 5% CO2 atmosphere and a subculture was performed every 3-4 days (see reference 13).
The QD delivery experiments were performed on adherent cells seeded into the wells of Lab-Tek 8-well chambered #1 borosilicate coverglass (Nalge Nunc, Rochester, N.Y.) coated with 2 μg/mL fibronectin. For electroporation and nucleofection, adherent cells were harvested by trypsinization prior to performing QD delivery to cells in suspension. Cells were then seeded to chambered coverglass wells and imaged after cell attachment. The endosomal marker AlexaFluor647-transferrin was included as indicated in the text. For imaging, cells were washed with phosphate buffered saline (PBS, 137 mM NaCl, 10 mM phosphate, 3 mM KCl, pH 7.4), fixed with 3.7% paraformaldehyde in PBS and nuclei were stained with DAPI (Sigma) unless otherwise indicated.
For electroporation, cells were harvested by trypsinization and recovered for 1 hour in complete growth medium, pelleted, and resuspended in PBS. 510 nm DHLA-PEG QDs (0.5 μM final concentration) were mixed with 1×10^4 cells to a final volume of 100 μL in PBS in a 0.2 mm electroporation cuvette. The cuvette was subjected to 100 V for a 20 ms pulse using a GenePulser XCell electroporator (Bio-Rad, Hercules, Calif.). Cells were resuspended in complete growth medium, seeded into fibronectin-coated 8-well chambered coverglass, fixed and imaged after 24 hrs. For nucleofection delivery, 1×10^6 cells were harvested and resuspended in 100 μL of NUCLEOFECTOR reagent (Amaxa, Gaithersburg, Md.). 510 nm DHLA-PEG QDs were included at a final concentration of 0.4 μM. The cell/QD/reagent mixture was pulsed in the NUCLEOFECTOR using a preset protocol adapted for each specific cell line (20, 21). Cells were cultured and imaged as described for electroporation.
The INFLUX cell-loading reagent mediates the intracellular release of materials internalized via pinocytic vesicles by delivering the materials to cells in a hypertonic medium followed by the transfer of the cells to a hypotonic medium to induce vesicle disruption (see reference 22). 510 nm DHLA-PEG QDs were diluted to a final concentration of 300-800 nM in the supplied hypertonic delivery media according to manufacturer's instructions and incubated on the cells for 30 min at 37° C. The hypertonic medium was exchanged for hypotonic medium (serum-free culture medium diluted by 40% with deionized water) and incubated on the cells for 3 min. The cells were then recovered in complete growth medium for 30 min and cultured for various lengths of time prior to washing and fixation for imaging.
520 nm QDs with a 1:1 mixed surface of DHLA:DHLA-PEG were incubated with LIPOFECTAMINE 2000 for 20 min in serum free medium at a ratio of 1 μL LIPOFECTAMINE 2000 per 1.5 pmol QD. The complexes, at a final QD concentration of 75 nM, were incubated with the cells for 4 hours, removed and replaced with complete growth medium. The cells were then cultured for 24-36 h prior to washing and fixation.
PEI was incubated with 520 nm mixed surface DHLA:DHLA-PEG QDs in serum free medium at a ratio of 10 μg PEI per 1 pmol QD for 15 min. […] The complexes were then diluted into serum free media to a final QD concentration of 75-100 nM, incubated with cells for 2 h and removed. Cells were then cultured in complete media for 24-36 h, washed and fixed.
A stock solution of 520 nm DHLA:DHLA-PEG QDs (1 μM in 0.1 M borate buffer, pH 8.9) was diluted to 0.5 μM in HEPES (4-(2-hydroxyethyl)-1-piperazineethanesulfonic acid, pH 8.2).

COS-1 cells = test: Cellular uptake and endosomal escape of QD-peptide assemblies, fluorescence microscopy; assay type: cell-based, African green monkey; details: for % Escape in cells with uptake: QD-peptide assemblies; for Overall uptake/escape: uptake: first word of the cell; for Overall uptake/escape: escape: second word of the cell; for intracellular distribution of QD-peptide assemblies: COS-1, 1 hr incubation, 24 hr culture
Experimental: Merged images were generated using Adobe PhotoShop.
The peptide assemblies were incubated with COS-1 cells for 1 hr, removed, and the cells were subsequently cultured for 24 hr prior to fixation. An AlexaFluor 647-transferrin (Tf) conjugate was included during the incubation to label the vesicles of the endocytic pathway. Cell nuclei were stained with DAPI.

Row | Compound | % Escape in cells with uptake (COS-1 cells; COS1 cells) [%] | Overall uptake/escape: uptake (COS-1 cells; COS1 cells) | Overall uptake/escape: escape (COS-1 cells; COS1 cells) | further results
1 | CCN(CC)CCCC(C)Nc1ccnc2cc(Cl)ccc12 (stereo not shown) [chloroquine] | – | – | – | Toxicity (HEK 293T/17 cells): significant cellular toxicity and morbidity; disruption of endosomes (HEK 293T/17 cells): efficiently disrupted the endosomes
2 | O=C(O)CCCc1ccc2ccc3cccc4ccc1c2c34 [pyrenebutyrate] | – | – | – | intracellular distribution of QDs (HEK 293T/17 cells; HEK 293T/17, endosomal marker AlexaFluor 647-transferrin): no cytosolic dispersal was observed
3 | OC[C@H]1O[C@@](CO)(O[C@H]2O[C@H](CO)[C@@H](O)[C@H](O)[C@H]2O)[C@@H](O)[C@@H]1O [sucrose] | – | – | – | Toxicity (HEK 293T/17 cells): significant cellular toxicity and morbidity; disruption of endosomes (HEK 293T/17 cells): efficiently disrupted the endosomes
4 | (H)6GG(P)9VKIKKDapaGW (HHHHHHGGPPPPPPPPPVKIKK[Dap](Palmitoyl)GW) [JB860] | 60 | Moderate | moderate | –
5 | (H)6GG(P)9WGDapaVKIKK (HHHHHHGGPPPPPPPPPWG[Dap](Palmitoyl)VKIKK) [JB859] | 17 | Moderate | low | –
6 | AcG(Pal)DapVKIKK P9GG H6 (Ac-G[Dap](Palmitoyl)VKIKKPPPPPPPPPGGHHHHHH) [Palm-1b] | – | – | – | intracellular distribution of QD-peptide assemblies (COS-1 cells): largely well dispersed throughout the cytoplasm
7 | AcG(Pal)DapVKIKKGLAAAAGG H6 (Ac-G[Dap](Palmitoyl)VKIKKGLAAAAGGHHHHHH) [Palm-2b] | – | – | – | intracellular distribution of QD-peptide assemblies (COS-1 cells): nearly entirely sequestered within endosomes
8 | AcG(Pal)DapVKIKKGLAPAAGG H6 (Ac-G[Dap](Palmitoyl)VKIKKGLAPAAGGHHHHHH) [Palm-3b] | – | – | – | intracellular distribution of QD-peptide assemblies (COS-1 cells): nearly entirely sequestered within endosomes
9 | KETWWETWWTEWSQPKKKRKVSGAibAAAGG(H)6 (KETWWETWWTEWSQPKKKRKVSG[Aib]AAAGGHHHHHH) [JB719, Chariot peptide, reference compound] | 43 | Moderate | moderate | –
10 | KhGDapaVKIKK(P)9GG(H)6 ([Kh]G[Dap](Palmitoyl)VKIKKPPPPPPPPPGGHHHHHH; reading uncertain; also: N-terminal modifications) [JB867] | – | – | – | QD/TAMRA colocalized (integrity) (COS-1 cells; COS1 cells, printed in the % QD uptake column): >90%
11 | VKIKKWGDapa(P)9GG(H)6 (VKIKKWG[Dap](Palmitoyl)PPPPPPPPPGGHHHHHH) [JB862] | 9 | Low | low | –
12 | WGCcVKIKK(P)9GG(H)6 [JB589] | 50 | Low | moderate | –
13 | WGCgVKIKK(P)9GG(H)6 (WGC(Farnesyl)VKIKKPPPPPPPPPGGHHHHHH; not fully specified) [JB872] | 79 | High | high | –
14 | WGDabaVKIKK(P)9GG(H)6 (WG[Dab](Palmitoyl)VKIKKPPPPPPPPPGGHHHHHH) [JB858] | – | – | – | % QD uptake (n), result in words (COS-1 cells; COS1 cells, cell continues in r20 'localized'): Membrane
15 | WGDapVKIKK(P)9GG(H)6 (WG[Dap]VKIKKPPPPPPPPPGGHHHHHH) [JB579] | 29 | Low | low | –
16 | WGDapVRL(P)3VRL(P)3VRL(P)3GG(H)6 (WG[Dap]VRLPPPVRLPPPVRLPPPGGHHHHHH) [JB868] | 18 | Moderate | low | –
